In US8933195B2, “Histone deacetylase inhibitors and synthetic method thereof and use thereof in manufacture of medicaments” (Nanjing Yoko Biomedical R & D Ltd., priority 2011, dated 2015):

Experiments:
[1] = tested on: human colon cancer HCT-116; assay: Subcutaneously transplanted tumors in nude mice; assay type: in vivo, BALB/cA nude mice; set-up: key to RTV (mean ± SD): RTV = Vt/V0, tumor volume at time t over volume at d0; settings: for RTV (mean ± SD) / TV (mean ± SD) d21: d21; for 1-T/C tumor inhibition rate: after three weeks
Description: The solvents are isopropanol and anhydrous ethanol (mixed in the volume ratio of 1:1). The test sample is dissolved with solvents and physiological saline in the ratio of 1:1 for use, and the above solvents and physiological saline are dissolved in the ratio of 1:1 as a negative control.
The number of mice in each group: 12 mice in the negative control group, and 6 mice in the administration group.
The cell strains are inoculated to the right axilla subcutaneous layer of the nude mice, with 5×10^6 per mouse. After formed, the transplanted tumors are passed down two generations in the nude mice and then used.
Tumor tissues in the vigorous growth period are cut into about 1.5 mm^3, and inoculated to the right axilla subcutaneous layer of the nude mice under aseptic conditions. For the subcutaneously transplanted tumors of the nude mice, the diameter of the transplanted tumors is measured by a vernier caliper. The mice are randomly grouped after the tumors grow to 100-200 mm^3. […] The diameter of the transplanted tumors is measured twice per week in the whole experimental process, and meanwhile the weight of the mice is weighed. The calculation formula of tumor volume (TV) is TV=½×a×b^2, where a and b represent length and width, respectively.
The relative tumor volume (RTV) is calculated according to the measured results, with the following calculation formula: RTV=Vt/V0, where V0 is the tumor volume obtained by measurement during administration in different cages (i.e., d0), Vt is the tumor volume obtained by measurement at each time. […] (Wc−WT)Wc×100%, where Wc is the tumor weight of the control group, and WT is the tumor weight of the treatment group.

HDAC7 = molecular target: T1, HDAC7 (Homo sapiens, UniProt Q8WUI4); assay: Measurement of biochemical activities of HDAC (fluorescently-labeled acetylated lysine substrate)
T1 sequence (Q8WUI4 1-952): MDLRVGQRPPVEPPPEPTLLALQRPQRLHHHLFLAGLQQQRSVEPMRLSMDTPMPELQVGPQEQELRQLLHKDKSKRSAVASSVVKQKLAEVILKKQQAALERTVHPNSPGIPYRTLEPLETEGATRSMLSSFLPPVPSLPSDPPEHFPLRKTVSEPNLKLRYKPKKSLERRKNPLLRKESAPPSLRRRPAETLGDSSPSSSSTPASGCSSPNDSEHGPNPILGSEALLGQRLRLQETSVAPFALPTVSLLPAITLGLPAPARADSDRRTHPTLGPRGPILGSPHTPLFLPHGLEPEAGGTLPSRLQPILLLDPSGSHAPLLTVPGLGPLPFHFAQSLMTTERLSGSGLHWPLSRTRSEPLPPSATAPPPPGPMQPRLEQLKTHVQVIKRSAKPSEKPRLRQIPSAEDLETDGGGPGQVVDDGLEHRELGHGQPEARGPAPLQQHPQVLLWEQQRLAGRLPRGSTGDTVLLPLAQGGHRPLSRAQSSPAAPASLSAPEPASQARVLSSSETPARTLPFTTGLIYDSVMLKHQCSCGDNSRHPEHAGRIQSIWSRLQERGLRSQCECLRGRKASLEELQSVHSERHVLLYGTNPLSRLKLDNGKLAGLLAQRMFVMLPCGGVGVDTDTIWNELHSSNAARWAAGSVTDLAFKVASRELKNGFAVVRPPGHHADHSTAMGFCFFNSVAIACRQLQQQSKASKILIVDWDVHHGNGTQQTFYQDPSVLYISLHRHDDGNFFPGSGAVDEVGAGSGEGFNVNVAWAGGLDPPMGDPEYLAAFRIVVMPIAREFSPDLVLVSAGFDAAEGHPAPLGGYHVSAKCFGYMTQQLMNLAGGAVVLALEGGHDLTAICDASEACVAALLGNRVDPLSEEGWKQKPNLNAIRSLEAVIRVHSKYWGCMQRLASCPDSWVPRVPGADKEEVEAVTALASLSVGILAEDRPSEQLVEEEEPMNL
Outline: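 For both HDAC isoforms, fluorescent acetyl-lysine substrate ([…] in reaction) incubated with enzyme and compounds for 30 min at 37; developer then added for 15 min at room temperature. Fluorescence read at excitation 360 nm, emission 460 nm.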

[2] = Table 2.1, 20 mg/kg q3d × 3w iv

O=C(CCCCCCC(=O)Nc1ccccc1)NO [SAHA, suberoylanilide hydroxamic acid, reference compound]
TV (mean ± SD) d0 ([1]; Table 1.1, 50 mg/kg qd × 3w iv): 116 ± 27 mm^3 | Weight d0 ([1]; Table 1.1, 50 mg/kg qd × 3w iv): 16.6 g | RTV (mean ± SD) ([1]; Table 1.1, 50 mg/kg qd × 3w iv): 4.87 ± 1.68 | TV (mean ± SD) d21 ([1]; Table 1.1, 50 mg/kg qd × 3w iv): 566 ± 221 mm^3 | Tumor Volume TV (mean ± SD) d 0 ([1]; Table 1.2, 50 mg/kg): 116 ± 27 mm^3 | Tumor Volume TV (mean ± SD) d 3 ([1]; Table 1.2, 50 mg/kg): 146 ± 38 mm^3 | Tumor Volume TV (mean ± SD) d 7 ([1]; Table 1.2, 50 mg/kg): 191 ± 25 mm^3 | Tumor Volume TV (mean ± SD) d 10 ([1]; Table 1.2, 50 mg/kg): 283 ± 41 mm^3 | Tumor Volume TV (mean ± SD) d 14 ([1]; Table 1.2, 50 mg/kg): 326 ± 45 mm^3 | Tumor Volume TV (mean ± SD) d 17 ([1]; Table 1.2, 50 mg/kg): 417 ± 140 mm^3 | Weight (mean ± SD) d 0 ([1]; Table 1.3, 50 mg/kg): 16.6 ± 1.5 g | Weight (mean ± SD) d 3 ([1]; Table 1.3, 50 mg/kg): 15.9 ± 1.5 g | Weight (mean ± SD) d 7 ([1]; Table 1.3, 50 mg/kg): 14.9 ± 1.8 g | Weight (mean ± SD) d 10 ([1]; Table 1.3, 50 mg/kg): 14.6 ± 1.4 g | Weight (mean ± SD) d 14 ([1]; Table 1.3, 50 mg/kg): 14.1 ± 1.3 g | Weight (mean ± SD) d 17 ([1]; Table 1.3, 50 mg/kg): 13.6 ± 1.3 g | Weight (mean ± SD) d 21 ([1]; Table 1.3, 50 mg/kg): 13.3 ± 1.1 g | TV (mean ± SD) d0 ([1]; Table 2.1, 50 mg/kg qd × 3w iv): 118 ± 25 mm^3 | Weight d0 ([1]; Table 2.1, 50 mg/kg qd × 3w iv): 16.9 g | RTV (mean ± SD) ([1]; Table 2.1, 50 mg/kg qd × 3w iv): 4.54 ± 1.72 | TV (mean ± SD) d21 ([1]; Table 2.1, 50 mg/kg qd × 3w iv): 536 ± 203 mm^3 | Tumor Volume TV (mean ± SD) d 0 ([1]; Table 2.2, 50 mg/kg): 120 ± 25 mm^3 | Tumor Volume TV (mean ± SD) d 3 ([1]; Table 2.2, 50 mg/kg): 146 ± 36 mm^3 | Tumor Volume TV (mean ± SD) d 7 ([1]; Table 2.2, 50 mg/kg): 189 ± 20 mm^3 | Tumor Volume TV (mean ± SD) d 10 ([1]; Table 2.2, 50 mg/kg): 263 ± 33 mm^3 | Tumor Volume TV (mean ± SD) d 14 ([1]; Table 2.2, 50 mg/kg): 300 ± 35 mm^3 | Tumor Volume TV (mean ± SD) d 17 ([1]; Table 2.2, 50 mg/kg): 402 ± 146 mm^3 | Weight (mean ± SD) d 0 ([1]; Table 2.3, 50 mg/kg): 16.8 ± 1.0 g | Weight (mean ± SD) d 3 ([1]; Table 2.3, 50 mg/kg): 15.7 ± 1.2 g | Weight (mean ± SD) d 7 ([1]; Table 2.3, 50 mg/kg): 14.9 ± 1.6 g | Weight (mean ± SD) d 10 ([1]; Table 2.3, 50 mg/kg): 14.6 ± 1.5 g | Weight (mean ± SD) d 14 ([1]; Table 2.3, 50 mg/kg): 14.2 ± 1.4 g | Weight (mean ± SD) d 17 ([1]; Table 2.3, 50 mg/kg): 13.8 ± 1.3 g | Weight (mean ± SD) d 21 ([1]; Table 2.3, 50 mg/kg): 13.4 ± 1.1 g | IC50 HDAC7 (HDAC7): no activity

C/C=C1\NC(=O)c2csc(n2)CNC(=O)C[C@@H](/C=C/CCSC(=O)CCCCCCC)OC(=O)[C@H](C)NC1=O [Compound 1-4]
1-T/C tumor inhibition rate [1, 2]: 74.46% | TV (mean ± SD) d0 [1, 2]: 116 ± 23 mm^3 | Weight d0 [1, 2]: 16.6 g | RTV (mean ± SD) [1, 2]: 2.65 ± 1.70 | TV (mean ± SD) d21 [1, 2]: 308 ± 198 mm^3 | Tumor Volume TV (mean ± SD) d 0 ([1]; Table 2.2, 20 mg/kg): 118 ± 23 mm^3 | Tumor Volume TV (mean ± SD) d 3 ([1]; Table 2.2, 20 mg/kg): 126 ± 12 mm^3 | Tumor Volume TV (mean ± SD) d 7 ([1]; Table 2.2, 20 mg/kg): 157 ± 26 mm^3 | Tumor Volume TV (mean ± SD) d 10 ([1]; Table 2.2, 20 mg/kg): 189 ± 52 mm^3 | Tumor Volume TV (mean ± SD) d 14 ([1]; Table 2.2, 20 mg/kg): 234 ± 103 mm^3 | Tumor Volume TV (mean ± SD) d 17 ([1]; Table 2.2, 20 mg/kg): 262 ± 132 mm^3 | Weight (mean ± SD) d 0 ([1]; Table 2.3, 20 mg/kg): 16.6 ± 1.2 g | Weight (mean ± SD) d 3 ([1]; Table 2.3, 20 mg/kg): 16.2 ± 1.4 g | Weight (mean ± SD) d 7 ([1]; Table 2.3, 20 mg/kg): 14.8 ± 1.2 g | Weight (mean ± SD) d 10 ([1]; Table 2.3, 20 mg/kg): 14.5 ± 1.0 g | Weight (mean ± SD) d 14 ([1]; Table 2.3, 20 mg/kg): 13.8 ± 0.9 g | Weight (mean ± SD) d 17 ([1]; Table 2.3, 20 mg/kg): 13.3 ± 0.9 g | Weight (mean ± SD) d 21 ([1]; Table 2.3, 20 mg/kg): 13.0 ± 1.0 g | IC50 HDAC7 (HDAC7): no activity

C/C=C1\NC(=O)c2csc(n2)CNC(=O)C[C@@H](/C=C/CCSC(=O)CCCCCCC)OC(=O)[C@H](Cc2ccc(O)cc2)NC1=O [Compound 1-8]
1-T/C tumor inhibition rate [1, 2]: 69.49% | TV (mean ± SD) d0 [1, 2]: 116 ± 22 mm^3 | Weight d0 [1, 2]: 16.1 g | RTV (mean ± SD) [1, 2]: 3.17 ± 2.08 | TV (mean ± SD) d21 [1, 2]: 368 ± 241 mm^3 | Tumor Volume TV (mean ± SD) d 0 ([1]; Table 2.2, 20 mg/kg): 118 ± 22 mm^3 | Tumor Volume TV (mean ± SD) d 3 ([1]; Table 2.2, 20 mg/kg): 139 ± 15 mm^3 | Tumor Volume TV (mean ± SD) d 7 ([1]; Table 2.2, 20 mg/kg): 165 ± 28 mm^3 | Tumor Volume TV (mean ± SD) d 10 ([1]; Table 2.2, 20 mg/kg): 203 ± 69 mm^3 | Tumor Volume TV (mean ± SD) d 14 ([1]; Table 2.2, 20 mg/kg): 265 ± 127 mm^3 | Tumor Volume TV (mean ± SD) d 17 ([1]; Table 2.2, 20 mg/kg): 305 ± 142 mm^3 | Weight (mean ± SD) d 0 ([1]; Table 2.3, 20 mg/kg): 16.3 ± 1.0 g | Weight (mean ± SD) d 3 ([1]; Table 2.3, 20 mg/kg): 15.8 ± 1.1 g | Weight (mean ± SD) d 7 ([1]; Table 2.3, 20 mg/kg): 15.1 ± 0.9 g | Weight (mean ± SD) d 10 ([1]; Table 2.3, 20 mg/kg): 14.5 ± 1.2 g | Weight (mean ± SD) d 14 ([1]; Table 2.3, 20 mg/kg): 14.0 ± 1.0 g | Weight (mean ± SD) d 17 ([1]; Table 2.3, 20 mg/kg): 13.5 ± 0.9 g | Weight (mean ± SD) d 21 ([1]; Table 2.3, 20 mg/kg): 12.9 ± 0.9 g | IC50 HDAC7 (HDAC7): no activity
